BindingDB's records for doi:10.1021/acs.jmedchem.7b01344 (Metabasis Therapeutics, 2017)

Assays:
[1] = molecular target: Prostaglandin D2 receptor 2 (CRTH2) (Homo sapiens) (UniProt Q9Y5Y4); assay: Binding affinity to DP2 receptor (unknown origin)
[2] = molecular target: Prostaglandin D2 receptor 2 (CRTH2) (Homo sapiens) (UniProt Q9Y5Y4); assay: Binding affinity to DP2 receptor (unknown origin) in presence of 10% human serum

Prostaglandin D2 receptor 2 (CRTH2) (Homo sapiens), sequence (Q9Y5Y4 whole entry, looked up): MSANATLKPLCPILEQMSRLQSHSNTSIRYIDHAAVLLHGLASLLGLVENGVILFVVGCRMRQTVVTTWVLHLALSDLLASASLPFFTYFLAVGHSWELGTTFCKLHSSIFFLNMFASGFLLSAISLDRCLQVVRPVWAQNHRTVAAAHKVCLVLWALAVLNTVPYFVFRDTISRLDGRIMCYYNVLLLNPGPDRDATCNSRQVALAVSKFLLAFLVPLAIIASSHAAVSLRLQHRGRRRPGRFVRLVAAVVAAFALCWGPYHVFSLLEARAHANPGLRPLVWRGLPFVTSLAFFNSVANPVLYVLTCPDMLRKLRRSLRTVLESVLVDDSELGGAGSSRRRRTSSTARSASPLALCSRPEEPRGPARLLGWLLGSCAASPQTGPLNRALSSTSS

Cc1ccc(Oc2nc3cc(-c4ccc(-c5ccccc5)cc4)c(Cl)cc3[nH]2)cc1C(=O)O
IC50 [1]: 1800 nM | IC50 [2]: > 86000 nM
